Measured values from US12617773B2, “Azetidin-3-ylmethanol derivatives as CCR6 receptor modulators” (Idorsia Pharmaceuticals Ltd, priority 2020, dated 2026).

What follows are compounds tested against T1, human CCR6 (Homo sapiens, UniProt P51684) (assay: FLIPR assay (inhibition of CCL20-induced calcium signal)). Settings: HEK-293 cells expressing human CCR6; mean values where determined several times; read-out: FLIPR IC50.
T1 construct: expressed in transfected cells; host or cells: HEK-293
T1 sequence (P51684 1-374): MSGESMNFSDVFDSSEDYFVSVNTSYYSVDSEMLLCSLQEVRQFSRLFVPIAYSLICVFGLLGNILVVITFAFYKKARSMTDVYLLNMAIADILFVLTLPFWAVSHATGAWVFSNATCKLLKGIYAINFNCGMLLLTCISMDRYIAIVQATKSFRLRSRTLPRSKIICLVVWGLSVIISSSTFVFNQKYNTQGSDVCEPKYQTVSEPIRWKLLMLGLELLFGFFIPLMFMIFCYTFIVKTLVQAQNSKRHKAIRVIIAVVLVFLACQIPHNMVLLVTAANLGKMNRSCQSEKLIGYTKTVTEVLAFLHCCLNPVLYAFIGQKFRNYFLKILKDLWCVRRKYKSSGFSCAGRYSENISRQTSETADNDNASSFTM
Assay type: cell-based
Summary of the method: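 IC50 values come from baseline-corrected peak calcium fluorescence after agonist. The agonist was CCL20 at 10 nM final, added to engineered human CCR6 HEK-293 cells following a 30-min, room-temperature, dark preincubation with serially diluted compound. Readings were taken in a fluorometric imaging plate reader.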

| IC50 | Structure (SMILES) |
| --- | --- |
| 70.8 nM | CN1CC(C)([C@](O)(c2ccc(CC(F)(F)F)cc2)c2cncc(-c3noc(C4CCOCC4)n3)c2)C1 [Example 550] |
| 135 nM | CCC(C)(C)c1ccc([C@](O)(c2cncc(-c3noc(C(C)(C)O)n3)c2)C2(C)CN(C)C2)cc1 [Example 551] |
| 76.8 nM | CC(=O)N1CCC(c2nc(-c3cncc([C@@](O)(c4ccc(C(C)C)c(F)c4)C4(C)CN(C)C4)c3)no2)CC1 [Example 552] |
| 62.3 nM | CC(=O)N1CCC(c2nc(-c3cncc([C@@](O)(c4ccc(C5(C(F)(F)F)CC5)cc4)C4(C)CN(C)C4)c3)no2)CC1 [Example 553] |
| 117 nM | CC(=O)N1CCC(c2nc(-c3cncc([C@@](O)(c4ccc(OC(F)(F)F)cc4)C4(C)CN(C)C4)c3)no2)CC1 [Example 554] |
| 986 nM | CC(=O)N1CCC(c2nc(-c3cncc([C@@](O)(c4ccc(OC(C)C)cc4)C4(C)CN(C)C4)c3)no2)CC1 [Example 555] |
| 615 nM | CC(C)c1ccc([C@](O)(c2cncc(-c3noc(C(C)(C)O)n3)c2)C2(C)CN(C)C2)cc1Cl [Example 556] |
| 46.3 nM | CN1CC(C)([C@](O)(c2ccc(C3CCC3)cc2)c2cncc(-c3noc(C(C)(C)O)n3)c2)C1 [Example 557] |
| 84.5 nM | CC(=O)N1CCC(c2nc(-c3cncc([C@@](O)(c4ccc(C5CCC5)cc4)C4(C)CN(C)C4)c3)no2)CC1 [Example 558] |
| 85.6 nM | CC(=O)N1CCC(c2nc(-c3cncc([C@@](O)(c4cc(F)c(C(C)C)c(F)c4)C4(C)CN(C)C4)c3)no2)CC1 [Example 559] |
| 74.6 nM | CC(C)c1c(F)cc([C@](O)(c2cncc(-c3noc(C(C)(C)O)n3)c2)C2(C)CN(C)C2)cc1F [Example 560] |
| 766 nM | CC(=O)N1CCC(c2nc(-c3cncc([C@@](O)(c4ccc(OC5CCC5)cc4)C4(C)CN(C)C4)c3)no2)CC1 [Example 561] |
| 44.7 nM | CCC(CC)c1ccc(C(O)(c2cncc(-c3noc(C(C)(C)O)n3)c2)C2(C)CN(C)C2)cc1 (centres unmarked) [Example 562] |
| 45.2 nM | CCC(CC)c1ccc(C(O)(c2cncc(-c3noc(C4CCN(C(C)=O)CC4)n3)c2)C2(C)CN(C)C2)cc1 (centres unmarked) [Example 563] |
| 91.9 nM | CN1CC(C)(C(O)(c2ccc(CC(C)(C)C)cc2)c2cncc(-c3noc(C(C)(C)O)n3)c2)C1 (centres unmarked) [Example 564] |
| 116 nM | CC(=O)N1CCC(c2nc(-c3cncc(C(O)(c4ccc(CC(C)(C)C)cc4)C4(C)CN(C)C4)c3)no2)CC1 (centres unmarked) [Example 565] |
| 209 nM | CC(=O)N1CCC(c2nc(-c3cncc(C(O)(c4ccc(C5(C)CC5)cc4)C4(C)CN(C)C4)c3)no2)CC1 (centres unmarked) [Example 566] |
| 59.1 nM | CCCc1ccc([C@](O)(c2cncc(-c3noc(C(C)(C)O)n3)c2)C2(C)CN(C)C2)cc1 [Example 567] |
| 97.6 nM | CN1CC(C)([C@](O)(c2ccc(C3CC3)cc2)c2cncc(-c3noc(C(C)(C)O)n3)c2)C1 [Example 568] |
| 118 nM | CCc1ccc([C@](O)(c2cncc(-c3noc(C(C)(C)O)n3)c2)C2(C)CN(C)C2)cc1 [Example 569] |
| 65.8 nM | CCCCc1ccc([C@](O)(c2cncc(-c3noc(C(C)(C)O)n3)c2)C2(C)CN(C)C2)cc1 [Example 570] |
| 1190 nM | CN1CC(C)([C@](O)(c2ccc(C(F)(F)F)cc2)c2cncc(-c3noc(C(C)(C)O)n3)c2)C1 [Example 571] |

| IC50 | Structure (SMILES) |
| --- | --- |
| 149 nM | CN1CC(C)([C@](O)(c2ccc(CC(F)(F)F)cc2)c2cncc(-c3noc(C(C)(C)O)n3)c2)C1 [Example 572] |
| 75.9 nM | CC(C)Cc1ccc([C@](O)(c2cncc(-c3noc(C(C)(C)O)n3)c2)C2(C)CN(C)C2)cc1 [Example 573] |
| 1340 nM | CN1CC(C)([C@](O)(c2ccc(OC3CCC3)cc2)c2cncc(-c3noc(C(C)(C)O)n3)c2)C1 [Example 574] |
| 103 nM | C=C(C)c1ccc([C@](O)(c2cncc(-c3noc(C(C)(C)O)n3)c2)C2(C)CN(C)C2)cc1 [Example 575] |
| 267 nM | CC(=O)N1CCC(c2nc(-c3cncc([C@@](O)(c4ccc(CC(F)(F)F)cc4)C4(C)CN(C)C4)c3)no2)CC1 [Example 576] |
| 66.1 nM | CCCc1ccc([C@](O)(c2cncc(-c3noc(C4CCN(C(C)=O)CC4)n3)c2)C2(C)CN(C)C2)cc1 [Example 577] |
| 97.2 nM | CC(=O)N1CCC(c2nc(-c3cncc([C@@](O)(c4ccc(C(C)C)cc4)C4(C)CN(C(C)C)C4)c3)no2)CC1 [Example 578, 1-[4-(3-{5-[(R)-Hydroxy-(1-isopropyl-3-methyl-azetidin-3-yl)-(4-isopropyl-phenyl)-methyl]-pyridin-3-yl}-[1,2,4]oxadiazol-5-yl)-piperidin-1-yl]-ethanone] |
| 411 nM | CC(=O)N1CCC(c2nc(-c3cncc([C@@](O)(c4ccc(C(C)C)cc4)C4(C)CN(CC(F)F)C4)c3)no2)CC1 [Example 579, 1-[4-(3-{5-[(R)-[1-(2,2-Difluoro-ethyl)-3-methyl-azetidin-3-yl]-hydroxy-(4-isopropyl-phenyl)-methyl]-pyridin-3-yl}-[1,2,4]oxadiazol-5-yl)-piperidin-1-yl]-ethanone] |
| 294 nM | CC(=O)N1CCC(c2nc(-c3cncc([C@@](O)(c4ccc(C(C)C)cc4)C4(C)CN(CCO)C4)c3)no2)CC1 [Example 580, 1-[4-(3-{5-[(R)-Hydroxy-[1-(2-hydroxy-ethyl)-3-methyl-azetidin-3-yl]-(4-isopropyl-phenyl)-methyl]-pyridin-3-yl}[1,2,4]oxadiazol-5-yl)-piperidin-1-yl]-ethanone] |
| 113 nM | CC(=O)N1CCC(c2nc(-c3cncc([C@@](O)(c4ccc(C(C)C)cc4)C4(C)CN(CC5CC5)C4)c3)no2)CC1 [Example 581] |
| 485 nM | COCCN1CC(C)([C@](O)(c2ccc(C(C)C)cc2)c2cncc(-c3noc(C4CCN(C(C)=O)CC4)n3)c2)C1 [Example 582] |
| 239 nM | CC(=O)N1CCC(c2nc(-c3cncc([C@@](O)(c4ccc(C(C)C)cc4)C4(C)CN(CCC(F)(F)F)C4)c3)no2)CC1 [Example 583] |
| 130 nM | CCCN1CC(C)([C@](O)(c2ccc(C(C)C)cc2)c2cncc(-c3noc(C4CCN(C(C)=O)CC4)n3)c2)C1 [Example 584] |
| 116 nM | CCN1CC(C)([C@](O)(c2ccc(C(C)C)cc2)c2cncc(-c3noc(C4CCN(C(C)=O)CC4)n3)c2)C1 [Example 585] |
| 67 nM | CC(=O)N1CCC(C#Cc2cncc([C@@](O)(c3ccc(C(C)C)cc3)C3(C)CN(C)C3)c2)CC1 [Example 586] |
| 14.8 nM | CC(C)c1ccc([C@](O)(c2cncc(C#CC(C)(O)C(F)(F)F)c2)C2(C)CN(C)C2)cc1 (some centres unmarked) [Example 587] |
| 119 nM | CC(C)c1ccc([C@](O)(c2cncc(C#CC(C)(C)NC(=O)C3CC3)c2)C2(C)CN(C)C2)cc1 [Example 588] |
| 154 nM | CC(C)C(=O)NC(C)(C)C#Cc1cncc([C@@](O)(c2ccc(C(C)C)cc2)C2(C)CN(C)C2)c1 [Example 589] |
| 235 nM | COCC(=O)NC(C)(C)C#Cc1cncc([C@@](O)(c2ccc(C(C)C)cc2)C2(C)CN(C)C2)c1 [Example 590] |
| 71.6 nM | CC(C)c1ccc([C@](O)(c2cncc(C#CC(C)(C)N3CCOC3=O)c2)C2(C)CN(C)C2)cc1 [Example 591] |
| 44.8 nM | CC(C)c1ccc([C@](O)(c2cncc(C#CC(C)(C)N3CCCC3=O)c2)C2(C)CN(C)C2)cc1 [Example 592] |
| 51.6 nM | CC(C)c1ccc([C@](O)(c2cncc(C#CC(C)(C)N3CCN(C)C3=O)c2)C2(C)CN(C)C2)cc1 [Example 593] |
